# Measured values from US10308605B2, “Proton pump inhibitors” (Takeda Pharmaceutical Company Limited, priority 2004, dated 2019).
# Where a name gives a salt, the structure may show the parent alone.
# Molecular target: proton, potassium-adenosine triphosphatase (H^+,K^+-ATPase) (Sus scrofa (Pig), UniProt P19156)
# Assay: Proton potassium-adenosine triphosphatase (H+,K+-ATPase) inhibitory activity test
# Assay type: biochemical
# Settings: swine gastric mucous membrane microsomal fraction, pH 6.5, 37° C.; read-out: H^+/K^+-ATPase inhibitory activity (IC50)
# Description: Proton Potassium-adenosine Triphosphatase (H^+,K^+-ATPase) Inhibitory Activity Test
# According to the method [Biochem. Biophys. Acta., 728, 31 (1983)] of Wallmark et al., a gastric mucous membrane microsomal fraction was prepared from the stomach of swine. First, the stomach was removed, washed with tap water, immersed in 3 mol/L brine, and the surface of the mucous membrane was wiped with a paper towel. The gastric mucous membrane was detached, chopped, and homogenized in a 0.25 mol/L saccharose solution (pH 6.8) containing 1 mmol/L EDTA and 10 mmol/L tris-hydrochloric acid using polytron (Kinematica). The obtained homogenate was centrifuged at 20,000×g for 30 min and the supernatant was centrifuged at 100,000×g for 90 min. The precipitate was suspended in 0.25 mol/L saccharose solution, superimposed on a 0.25 mol/L saccharose solution containing 7.5% Ficoll, and centrifuged at 100,000×g for 5 hr. The fraction containing the interface between the both layers was recovered, and centrifugally washed with 0.25 mol/L saccharose solution.
# The obtained microsomal fraction was used as a proton, potassium-adenosine triphosphatase standard product.
# To 40 μL of a 50 mmol/L HEPES-tris buffer (5 mmol/L magnesium chloride, 10 mmol/L potassium chloride, 10 μmol/L valinomycin, pH=6.5) containing 2.5 μg/mL (based on the protein concentration) of the enzyme standard product was added a test compound (5 μL) dissolved in a 10% aqueous dimethyl sulfoxide solution, and the mixture was incubated at 37° C. for 30 min. The enzyme reaction was started by adding 5 μL of a 2 mmol/L adenosine triphosphate tris salt solution (50 mmol/L HEPES-tris buffer (5 mmol/L magnesium chloride, pH 6.5)). The enzyme reaction was carried out at 37° C. for 20 min, and 15 μL of a malachite green solution (0.12% malachite green solution in sulfuric acid (2.5 mol/L), 7.5% ammonium molybdate and 11% Tween 20 were mixed at a ratio of 100:25:2) was added to quench the reaction. After allowing to stand at room temperature for 15 min, the resulting reaction product of inorganic phosphorus with malachite green was colorimetrically determined at a wavelength of 610 nm. In addition, the amount of the inorganic phosphoric acid in the reaction solution free of potassium chloride was measured in the same manner, which was subtracted from the inorganic phosphoric acid amount in the presence of potassium chloride to determine the proton, potassium-adenosine triphosphatase activity. The inhibitory rate (%) was determined from the activity value of the control and the activity values of various concentrations of the test compound, and the 50% inhibitory concentration (IC50) of the proton, potassium-adenosine triphosphatase was determined.
# proton, potassium-adenosine triphosphatase (H^+,K^+-ATPase), sequence (P19156 2-1034): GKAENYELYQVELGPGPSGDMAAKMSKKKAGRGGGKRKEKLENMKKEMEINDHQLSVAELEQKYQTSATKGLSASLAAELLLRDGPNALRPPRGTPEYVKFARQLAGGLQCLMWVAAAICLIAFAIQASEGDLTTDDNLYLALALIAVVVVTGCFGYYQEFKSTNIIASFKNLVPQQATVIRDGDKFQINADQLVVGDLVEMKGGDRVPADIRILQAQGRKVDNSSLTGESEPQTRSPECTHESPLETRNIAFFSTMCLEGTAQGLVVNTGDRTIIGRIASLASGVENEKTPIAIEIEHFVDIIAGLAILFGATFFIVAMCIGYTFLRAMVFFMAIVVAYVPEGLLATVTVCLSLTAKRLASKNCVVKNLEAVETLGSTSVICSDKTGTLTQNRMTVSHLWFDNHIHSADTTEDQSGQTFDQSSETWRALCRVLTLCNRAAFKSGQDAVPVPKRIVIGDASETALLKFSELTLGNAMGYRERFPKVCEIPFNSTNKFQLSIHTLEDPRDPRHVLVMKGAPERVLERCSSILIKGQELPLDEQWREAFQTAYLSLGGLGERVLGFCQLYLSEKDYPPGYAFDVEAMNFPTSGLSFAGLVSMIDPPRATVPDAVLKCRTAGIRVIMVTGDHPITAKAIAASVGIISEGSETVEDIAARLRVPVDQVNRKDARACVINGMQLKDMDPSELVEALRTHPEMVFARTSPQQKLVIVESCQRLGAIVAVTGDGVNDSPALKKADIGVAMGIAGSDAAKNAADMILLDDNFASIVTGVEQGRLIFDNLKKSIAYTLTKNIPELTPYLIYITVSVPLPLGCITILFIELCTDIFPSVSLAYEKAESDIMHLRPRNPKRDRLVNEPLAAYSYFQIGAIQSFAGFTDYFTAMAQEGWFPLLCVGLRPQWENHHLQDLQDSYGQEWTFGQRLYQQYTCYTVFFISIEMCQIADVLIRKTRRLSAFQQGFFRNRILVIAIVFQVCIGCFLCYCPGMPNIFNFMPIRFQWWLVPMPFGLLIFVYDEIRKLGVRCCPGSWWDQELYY
# proton, potassium-adenosine triphosphatase (H^+,K^+-ATPase), sequence (P18434 whole entry partner): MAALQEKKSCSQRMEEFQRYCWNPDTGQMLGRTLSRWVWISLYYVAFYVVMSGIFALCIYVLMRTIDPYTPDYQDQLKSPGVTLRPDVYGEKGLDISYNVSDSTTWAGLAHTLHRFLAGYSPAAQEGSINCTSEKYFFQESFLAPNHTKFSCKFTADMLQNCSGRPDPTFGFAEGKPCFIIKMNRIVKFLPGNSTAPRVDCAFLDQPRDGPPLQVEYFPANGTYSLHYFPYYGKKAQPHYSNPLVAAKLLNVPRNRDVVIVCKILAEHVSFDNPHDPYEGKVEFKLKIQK
row,Compound,IC50 [µM]
1,"CNCc1cc(-c2ccsc2)n(S(=O)(=O)c2ccccc2)c1 [Example 30, N-methyl-1-[1-(phenylsulfonyl)-5-(3-thienyl)-1H-pyrrol-3-yl]methanamine hydrochloride]",0.0042
2,"CNCc1cc(-c2ccccc2)n(S(=O)(=O)c2cc3ccccc3s2)c1 [Example 152, 1-[1-(1-Benzothien-2-ylsulfonyl)-5-phenyl-1H-pyrrol-3-yl]-N-methylmethanamine hydrochloride]",0.033
3,"CNCc1cc(-c2ccccc2F)n(S(=O)(=O)c2cccc(S(C)(=O)=O)c2)c1 [Example 161, 1-[5-(2-Fluorophenyl)-1-{[3-(methylsulfonyl)phenyl]sulfonyl}-1H-pyrrol-3-yl]-N-methylmethanamine hydrochloride]",0.062
4,"CNCc1cc(-c2ccccc2F)n(S(=O)(=O)c2ccccc2F)c1 [Example 165, 1-{5-(2-Fluorophenyl)-1-[(2-fluorophenyl)sulfonyl]-1H-pyrrol-3-yl}-N-methylmethanamine hydrochloride]",0.009
5,"CNCc1cc(-c2ccccc2C)n(S(=O)(=O)c2cccnc2)c1 [Example 220, N-Methyl-1-[5-(2-methylphenyl)-1-(pyridin-3-ylsulfonyl)-1H-pyrrol-3-yl]methanamine dihydrochloride]",0.036

# Second part, the compound after the results:
row,IC50 [µM],Compound
1,0.051,"CNCc1cc(-c2ccccc2)n(S(=O)(=O)c2ccsc2)c1 [Example 43, N-Methyl-1-[5-phenyl-1-(3-thienylsulfonyl)-1H-pyrrol-3-yl]methanamine hydrochloride]"
2,0.078,"CNCc1cc(-c2ccccc2)n(S(=O)(=O)c2cccc(S(C)(=O)=O)c2)c1 [Example 140, N-Methyl-1-(1-{[3-(methylsulfonyl)phenyl]sulfonyl}-5-phenyl-1H-pyrrol-3-yl)methanamine hydrochloride]"
3,0.086,"CNCc1cc(-c2ccccc2)n(S(=O)(=O)c2cccc(C(=O)NC)c2)c1 [Example 204, N-Methyl-3-({4-[(methylamino)methyl]-2-phenyl-1H-pyrrol-1-yl}sulfonyl)benzamide hydrochloride]"

# Same assay, conditions: swine gastric mucous membrane microsomal fraction, pH 6.5, 37° C.; read-out: IC50
row,IC50 [µM],Compound
1,0.091,"CNCc1cc(-c2cccc(C)c2)n(S(=O)(=O)c2ccc(C)cc2)c1 [Example 7, N-Methyl-1-{5-(3-methylphenyl)-1-[(4-methylphenyl)sulfonyl]-1H-pyrrol-3-yl}methanamine hydrochloride]"
2,0.051,"CNCc1cc(-c2ccccc2)n(S(=O)(=O)c2ccc(F)cc2C)c1 [Example 11, 1-{1-[(4-Fluoro-2-methylphenyl)sulfonyl]-5-phenyl-1H-pyrrol-3-yl}-N-methylmethanamine hydrochloride]"
3,0.71,"CN(C)Cc1cc(-c2ccccc2)n(S(=O)(=O)c2ccc(C(F)(F)F)cc2)c1 [Example 12, N,N-Dimethyl-1-(5-phenyl-1-{[4-(trifluoromethyl)phenyl]sulfonyl}-1H-pyrrol-3-yl)methanamine hydrochloride]"
